pIC50: −log10 of the molar value. Where two headings read alike, the source gives them in different places.
Legend:
[1] = Preliminary pharmacokinetic analysis; format: in vivo, mice
[2] = system: A2780 EOC cell line; experiment: Clonogenic survival assay in A2780 cells; format: cell-based; settings: 48 hours treatment, 1-200 μM, read-out: Cellular IC50
Procedure: Referring now to cell culture, A2780 cells and A2780/R cells were purchased from Sigma. All other cell lines were from ATCC and routinely tested for mycoplasma contamination. Cells were maintained in RPMI media supplemented with 10% FBS (Atlanta Biological), penicillin and streptomycin. Cultures were incubated at 37° C. in 5% CO2 and sub-cultured 2-3 times per week.
(§1) Referring now to clonogenic survival assays, cells were plated in a 6 well (100,000 cells/well) or 24 well (25,000 cells/well) plate, incubated for at least 18 hours and then treated with Pt/etoposide and/or RPA inhibitors. After 48 hours of treatment, the cells were re-plated in 10 cm dishes (500-1000 cells/dish) and incubated for 8-10 days to allow colony formation. Plates were then washed with PBS, fixed with glutaraldehyde (Fisher Scientific) and stained with crystal violet (Acros Organics). The colonies were then counted using an Acolyte Synbiosis colony counter, viability determined versus vehicle controls which were plotted versus drug concentration.

[3] = system: A2780 cells; experiment: Assessment of synergy via combination index (Chou-Talalay), colony formation; format: cell-based; settings: A2780, at 0.5 or higher fraction of cells affected
Procedure: as §1
Referring now to Assessment of Synergy via Combination Index, in the combination index studies, the A2780 cells were treated with RPA inhibitor and Pt/etoposide alone as well as the combination of both—the inhibitor and the DNA damaging chemotherapeutic agent. The range of treatment was dependent on the IC50 of each inhibitor/drug. If the IC50 was X, then the cells were treated at a range of X/4 to 3X concentration in a colony formation assay. […]

[4] = Safety and tolerability (body weight) in naive NOD/SCID mice; format: in vivo
Procedure: Referring now to in vivo analysis of TDRL-551, non-obese diabetic/severe combined immunodeficient mice (NOD/SCID) were obtained from The Jackson Laboratory. All animal studies were conducted under the guidelines of the NIH and were approved by the Institutional Animal Care and Use Committee of Indiana University School of Medicine. Animals were maintained under pathogen-free conditions and a 12-hour light-dark cycle. The safety and tolerability of TDRL-551 was assessed in naïve NOD/SCID mice. Mice were treated IP with increasing concentrations of TDRL-551 in a formulation consisting of 20% DMSO, 10% Tween 80, 70% PBS. Based on preliminary PK analysis and a half-life of ˜7 hours (data not shown) we administered 3 doses per week for two weeks and measured body weight every other day.

[5] = biological target: full length, heterotrimeric human RPA (fl-RPA) (Homo sapiens (Human), UniProt P27694); experiment: EMSA for inhibition of RPA-DNA binding activity (full length RPA)
Chain of full length, heterotrimeric human RPA (fl-RPA) (P27694 whole entry, the tested form may be a part): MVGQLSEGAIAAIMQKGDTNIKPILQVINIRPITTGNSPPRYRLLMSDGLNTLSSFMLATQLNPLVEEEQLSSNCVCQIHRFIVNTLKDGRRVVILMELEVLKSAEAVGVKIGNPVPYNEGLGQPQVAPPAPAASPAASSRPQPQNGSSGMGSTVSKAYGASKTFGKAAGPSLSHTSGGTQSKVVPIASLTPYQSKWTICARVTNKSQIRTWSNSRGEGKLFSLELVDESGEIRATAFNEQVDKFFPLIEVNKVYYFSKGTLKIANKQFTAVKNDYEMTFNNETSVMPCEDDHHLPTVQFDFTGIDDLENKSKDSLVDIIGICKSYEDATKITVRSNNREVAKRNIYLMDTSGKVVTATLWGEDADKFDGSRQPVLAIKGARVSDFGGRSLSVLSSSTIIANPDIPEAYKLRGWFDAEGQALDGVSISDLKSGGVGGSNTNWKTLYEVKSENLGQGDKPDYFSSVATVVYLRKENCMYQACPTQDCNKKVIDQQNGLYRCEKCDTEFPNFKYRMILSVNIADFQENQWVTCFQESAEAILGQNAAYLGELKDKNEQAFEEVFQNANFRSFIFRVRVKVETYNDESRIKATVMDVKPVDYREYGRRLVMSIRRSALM
Chain of full length, heterotrimeric human RPA (fl-RPA) (P15927 whole entry partner, the tested form may be a part): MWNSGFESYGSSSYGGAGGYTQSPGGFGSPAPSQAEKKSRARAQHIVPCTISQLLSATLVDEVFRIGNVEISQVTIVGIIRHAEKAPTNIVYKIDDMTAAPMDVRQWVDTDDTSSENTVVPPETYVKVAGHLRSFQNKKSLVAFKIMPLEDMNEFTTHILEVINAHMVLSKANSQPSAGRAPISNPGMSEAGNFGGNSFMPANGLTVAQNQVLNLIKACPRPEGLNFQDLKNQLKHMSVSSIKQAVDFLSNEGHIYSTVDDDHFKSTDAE
Chain of full length, heterotrimeric human RPA (fl-RPA) (P35244 whole entry partner, the tested form may be a part): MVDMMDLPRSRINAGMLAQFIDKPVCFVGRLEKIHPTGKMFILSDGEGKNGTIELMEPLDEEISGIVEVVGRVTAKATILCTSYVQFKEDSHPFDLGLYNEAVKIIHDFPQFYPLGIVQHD
Procedure: Referring to protein purification, full length, heterotrimeric human RPA (fl-RPA) was expressed in E. coli and purified by a three column procedure as previously described (See Patrick S M and Turchi J, Replication Protein A (RPA) Binding to Duplex Cisplatin-damaged DNA Is Mediated through the Generation of Single-stranded DNA. J Biol Chem 1999; 274:14972-8). The DBD-A/B construct was expressed as a SUMO-His6-RPA^181-432 fusion protein. E. coli BL21 (DE3) cells in log growth were induced for 3 hours with 0.5 mM IPTG at 37° C. The cells were lysed in buffer containing 50 mM Tris pH 7.5, 300 mM NaCl, 10% sucrose, 10 mM imidazole, 25 μg/ml lysozyme, 1 μg/ml leupeptin, 1 μg/ml pepstatin and 0.5 mM PMSF. The lysate was loaded onto a Ni-NTA column washed and then incubated overnight with wash buffer containing 3 μg/ml ULP1 protease to cleave the SUMO tag. The cleaved His6-RPA^181-432 was eluted from the Ni-NTA column with elution buffer containing 350 mM imidazole. The His6-RPA was then further purified on a size exclusion column (SEC) to remove the cleaved SUMO tag fragment. The SEC pool was then concentrated and stored at −80° C.
Referring now to Electrophoretic Mobility Shift Assays (“EMSA”), EMSA reactions (20 μL) were performed with 50 nM fl-RPA and 2.5 nM 5′[^32P]-labeled 34-base DNA in buffer containing 20 mM HEPES (pH 7.0), 1 mM DTT, 0.001% NP-40, 100 mM NaCl, 5 mM MgCl2 and 50 μg/ml bovine serum albumin (BSA). Chemical compounds, either purchased from ChemDiv or synthesized in the laboratory, were suspended in DMSO and titrated as detailed in each figure. The DMSO concentration in the reaction mixture was kept constant at or below 5%. RPA was incubated with inhibitor or DMSO control in reaction buffer for 30 minutes before the addition of DNA. Reactions were incubated for 5 minutes at room temperature and products separated via 6% native polyacrylamide gel electrophoresis. The bound and unbound fractions were then quantified by phosphor-imager analysis using ImageQuant software (Molecular Dynamics, CA) and IC50 values calculated by non-linear regression using SigmPlot (Sysat). For EMSA reactions with RPA DBD-A/B, 150 nM DBD-A/B was used and electrophoresis was performed at 4° C. All other conditions were identical to those described for the full length RPA.

[6] = EMSA, RPA incubated with compounds at 1-125 μM, read-out: In vitro IC50
[7] = compounds titrated at 1-125 μM, read-out: IC50 calculated from EMSA reactions

Row | pIC50 [5, 6] | pIC50 [5, 7] | Compound | other results
1 |  |  | CCOc1ccc2cc(C3CC(c4ccc(I)cc4)=NN3C(=O)CCCC(=O)O)c(Cl)nc2c1 (centres unmarked) | half-life ([1]; NOD/SCID, mouse, plasma, preliminary PK analysis): ~420 min; plasma concentration achieved ([1]; initial pharmacokinetic analysis): > 20 µM; pIC50 ([2]; Homo sapiens): 4.60; combination index (CI) with cisplatin [3]: < 1; adverse effects / loss of weight ([4]; co-treatment with carboplatin, up to 200 mg/kg): no adverse effects or loss of weight; body weight change ([4]; intraperitoneal administration up to 200 mg/kg, 3 doses per week for two weeks): no weight loss observed; body weight change ([4]; intraperitoneal, 300 mg/kg): slight decrease in body weight; loss of weight ([4]; intraperitoneal, 300 mg/kg): ≤ 10%
2 | 4.12 |  | CCOc1ccc2cc(C3CC(c4ccc(I)cc4)=NN3c3cccc(C(=O)O)c3)c(Cl)nc2c1 (centres unmarked) [NG-01-02] | 
3 | < 4.00 |  | CCOc1ccc2cc(C3CC(c4ccc(I)cc4)=NN3c3ccc(C(=O)O)cc3)c(Cl)nc2c1 (centres unmarked) [NG-01-04] | 
4 | 5.15 |  | CCOc1ccc2cc(C3CC(c4ccc(I)cc4)=NN3C(=O)CCCCC(=O)O)c(Cl)nc2c1 (centres unmarked) [NG-01-24] | 
5 | 5.00 |  | CCOc1ccc2cc(C3CC(c4ccc(I)cc4)=NN3C(=O)CCCCCC(=O)O)c(Cl)nc2c1 (centres unmarked) [NG-01-25] | 
6 | < 4.30 |  | COc1ccc2cc(C3CC(c4ccc(Br)cc4)=NN3C(=O)CCCC(=O)O)c(Cl)nc2c1 (centres unmarked) [TDRL-533] | pIC50 [2]: < 4.30
7 | 4.46 |  | COc1ccc2cc(C3CC(c4ccc(Br)cc4)=NN3C(=O)CCCCC(=O)O)c(Cl)nc2c1 (centres unmarked) [TDRL-534] | 
8 | < 4.00 |  | COc1ccc2cc(C3CC(c4ccc(F)cc4)=NN3C(=O)CCCCC(=O)O)c(Cl)nc2c1 (centres unmarked) [TDRL-539] | 
9 | < 4.00 |  | COc1ccc2cc(C3CC(c4ccc(F)cc4)=NN3C(=O)CCCC(=O)O)c(Cl)nc2c1 (centres unmarked) [TDRL-540] | 
10 | 4.60 |  | CCOc1ccc2cc(C3CC(c4ccc(Br)cc4)=NN3C(=O)CCCCC(=O)O)c(Cl)nc2c1 (centres unmarked) [TDRL-543] | pIC50 [2]: 4.30
11 | 4.37 |  | CC(C)Oc1ccc2cc(C3CC(c4ccc(Br)cc4)=NN3C(=O)CCCCC(=O)O)c(Cl)nc2c1 (centres unmarked) [TDRL-556] | 
12 | 4.52 |  | CCOc1ccc2cc(C3CC(c4ccc(OC(F)(F)F)cc4)=NN3C(=O)CCCCC(=O)O)c(Cl)nc2c1 (centres unmarked) [TDRL-557] | 
13 | < 4.00 |  | CCOc1ccc2cc(C3CC(c4ccc(Br)nc4)=NN3C(=O)CCC(=O)O)c(Cl)nc2c1 (centres unmarked) [TDRL-617] | 
14 | 4.82 |  | CCOc1ccc2cc(C3CC(c4cccc(I)c4)=NN3C(=O)CCCCC(=O)O)c(Cl)nc2c1 (centres unmarked) [TDRL-652] | 
15 |  | < 4.00 | COc1ccc(C2CC(c3ccccc3)=NN2C(=O)CCCC(=O)O)cc1OC (centres unmarked) [a] | 
16 |  | < 4.00 | COc1ccc(C2CC(c3ccc(C)cc3)=NN2C(=O)CCCC(=O)O)cc1OC (centres unmarked) [b] | 
17 |  | < 4.00 | COc1ccc(C2=NN(C(=O)CCCC(=O)O)C(c3ccccc3OC)C2)cc1 (centres unmarked) [c] | 
18 |  | 4.60 | CCOc1ccc2cc(C3CC(c4ccc(Br)cc4)=NN3C(=O)CCCC(=O)O)c(Cl)nc2c1 (centres unmarked) [d] | 
19 |  | 4.10 | CCOc1ccc2cc(C3CC(c4ccc(C)cc4)=NN3C(=O)CCC(=O)O)c(Cl)nc2c1 (centres unmarked) [e] | 
20 |  | 4.12 | COc1ccc2cc(C3CC(c4ccc(Cl)cc4)=NN3C(=O)CCC(=O)O)c(Cl)nc2c1 (centres unmarked) [f] | 
21 |  | < 4.00 | COc1ccc(C2=NN(C(=O)CCC(=O)O)C(c3cc4ccc(OC)cc4nc3Cl)C2)cc1 (centres unmarked) [g] | 
22 |  | < 4.00 | COc1ccc2cc(C3CC(c4ccc(OC)c(OC)c4)=NN3C(=O)CCC(=O)O)c(Cl)nc2c1 (centres unmarked) [h] | 
23 |  | < 4.00 | COc1ccc2cc(C3CC(c4ccc(C)cc4)=NN3C(=O)CCCC(=O)O)c(Cl)nc2c1 (centres unmarked) [i] | 
24 |  | 4.22 | COc1ccc2cc(C3CC(c4ccc(Cl)cc4)=NN3C(=O)CCCC(=O)O)c(Cl)nc2c1 (centres unmarked) [j] | 
25 |  | < 4.00 | COc1ccc2cc(C3CC(c4ccc(OC)c(OC)c4)=NN3C(=O)CCCC(=O)O)c(Cl)nc2c1 (centres unmarked) [k] | 
26 |  | < 4.00 | O=C(O)CCCC(=O)N1N=C(c2ccccc2)CC1c1cc2cc3c(cc2nc1Cl)OCCO3 (centres unmarked) [l] | 

— patent publication US10774063B2, “Materials and method for inhibiting replication protein A and uses thereof” (INDIANA UNIVERSITY RESEARCH AND TECHNOLOGY CORPORATION, priority 2014, dated 2020)
